Experimental data published in patent EP1081144A2, “Process for making 5-lipoxygenase inhibitors having varied heterocyclic ring systems” (Pfizer Products Inc., priority 1999, dated 2001).
Values after ≈ are worked out from the molar mass of the structure shown.

Assay: Solubility of the reaction product in acetic acid and in acetic acid/water
Format: physicochemical
Settings: organic solvent or mixture
Experimental: The reaction mixture was cooled to 22°C and granulated for 1 hour. The resulting slurry was then vacuum filtered and the filter cake was washed twice with water (100 ml). The filter cake (75 g) was placed in a 50°C vacuum drier with a nitrogen bleed, after which 23.04 g of solid product were obtained for a yield of 74.0%.

solubility (in a 2:1 mixture of acetic acid and water): ~4.5 mg/mL (≈ 13.6 mM)
solubility (in acetic acid at room temperature): ~62 mg/mL (≈ 187 mM)
SMILES: NC(=O)C1(c2cccc(Sc3ccc(F)cc3)c2)CCOCC1 [Example 3, tetrahydro-4-[3-(4-fluorophenyl)thio]phenyl-2H-pyran-4-carboxamide]
